Reference: patent US20050209278A1, “Piperidinyl- and piperazinyl-sulfonylmethyl hydroxamic acids and their use as protease inhibitors” (priority 2002, published 2005)

How the values were obtained:
MMP-2 = target: T1, MMP-2 (Homo sapiens, UniProt P08253); assay: In vitro MMP inhibition, Ki determination (fluorogenic substrate II); format: biochemical; details: value not in parenthesis; read-out: MMP-2 Ki
T1 construct: made in house; host or cells: MMP-2-transfected p2AHT2 cells
T1 sequence (P08253 110-660): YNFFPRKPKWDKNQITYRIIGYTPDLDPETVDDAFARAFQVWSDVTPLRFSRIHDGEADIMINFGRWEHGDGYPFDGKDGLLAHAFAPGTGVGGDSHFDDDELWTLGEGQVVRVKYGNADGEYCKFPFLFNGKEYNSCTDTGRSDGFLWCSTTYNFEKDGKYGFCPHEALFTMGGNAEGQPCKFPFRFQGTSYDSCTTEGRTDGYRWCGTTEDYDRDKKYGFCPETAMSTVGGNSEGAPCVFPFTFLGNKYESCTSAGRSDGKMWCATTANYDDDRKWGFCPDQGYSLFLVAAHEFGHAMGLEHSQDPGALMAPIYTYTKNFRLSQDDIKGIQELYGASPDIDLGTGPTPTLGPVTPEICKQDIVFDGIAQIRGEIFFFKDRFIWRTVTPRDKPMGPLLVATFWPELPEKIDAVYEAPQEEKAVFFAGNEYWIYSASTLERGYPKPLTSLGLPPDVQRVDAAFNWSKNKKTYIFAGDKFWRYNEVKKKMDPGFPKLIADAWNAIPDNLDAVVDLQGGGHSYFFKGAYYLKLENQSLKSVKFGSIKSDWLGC

MMP-14 = target: T2, MMP-14 (Homo sapiens, UniProt P50281); assay: as above; format: biochemical; details: value not in parenthesis; read-out: MMP-14 Ki
T2 construct: The catalytic domain enzyme was expressed in E. coli inclusion bodies, solubilized in urea; made in house
Summary of the method: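 E. coli-expressed, refolded MMP-14 catalytic domain, activated with APMA or trypsin, in 100 mM Tris-HCl pH 7.5, 100 mM NaCl, 10 mM CaCl2, 0.05% Brij-type detergent. Apparent Ki by Morrison-equation regression of velocity vs inhibitor and enzyme concentration.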

SMILES	Ki (MMP-2) [µM]	Ki (MMP-14) [µM]
CCC(C)Cc1ccc(N2CCN(S(=O)(=O)C3(C(=O)NO)CCN(CCOC)CC3)CC2)cc1 (stereo not shown) [Example 190]	0.00149	6.1
COCCN1CCC(C(=O)NO)(S(=O)(=O)N2CCN(c3ccc(OC(F)(F)F)cc3)CC2)CC1 [Example 202]	0.000432	0.623
CCCCCc1ccc(N2CCN(S(=O)(=O)C3(C(=O)NO)CCN(C(=O)CC)CC3)CC2)cc1 [Example 206]	0.00063	0.11
CCCCOc1ccc(N2CCN(S(=O)(=O)C3(C(=O)NO)CCN(C(=O)N(CC)CC)CC3)CC2)cc1 [Example 242]	0.000591	2.39
Cc1ccc(-c2ccc(N3CCN(S(=O)(=O)C4(C(=O)NO)CCOCC4)CC3)cc2)cc1 [Example 207]	0.00202	> 10
CCCNC(=O)c1ccc(N2CCN(S(=O)(=O)C3(C(=O)NO)CCN(CCOC)CC3)CC2)cc1 [Example 175]	0.0469	> 10
CCCCCc1ccc(N2CCN(S(=O)(=O)C3(C(=O)NO)CCOCC3)CC2)nc1 [Example 167]	0.00011	0.458
CCCCCc1ccc(N2CCN(S(=O)(=O)C3(C(=O)NO)CCN(S(=O)(=O)N(C)C)CC3)CC2)cc1 [Example 236]	0.00258	> 10
COc1ccc(-c2ccc(N3CCN(S(=O)(=O)C4(C(=O)NO)CCOCC4)CC3)nc2)cc1 [Example 61]	0.00039	0.199
CCOCCSc1ccc(N2CCN(S(=O)(=O)C3(C(=O)NO)CCOCC3)CC2)cc1 [Example 234]	0.00316	2.88
O=C(NO)C1(S(=O)(=O)N2CCN(c3ccc4c(c3)OC(F)(F)C(F)(F)O4)CC2)CCOCC1 [Example 67]	0.0505	> 10
CCCc1nnc(N2CCN(S(=O)(=O)C3(C(=O)NO)CCOCC3)CC2)s1 [Example 216]	0.214	> 10
CCCCOc1ccc(N2CCN(S(=O)(=O)C3(C(=O)NO)CCN(c4ccc(OC)c(OC)c4)CC3)CC2)cc1 [Example 229]	0.00267	7.88
O=C(NO)C1(S(=O)(=O)N2CCN(c3ccc(-c4ccc(F)cc4)cc3)CC2)CCOCC1 [Example 208]	0.00024	0.621
CCCCOc1ccc(N2CCN(S(=O)(=O)C3(C(=O)NO)CCN(c4cccc(C)c4)CC3)CC2)cc1 [Example 226]	0.0104	> 10
CCCCC(=O)c1ccc(N2CCN(S(=O)(=O)C3(C(=O)NO)CCN(CCOC)CC3)CC2)cc1 [Example 177]	0.00233	> 10
COCCSc1ccc(N2CCN(S(=O)(=O)C3(C(=O)NO)CCOCC3)CC2)cc1 [Example 227]	0.00247	1.68
CCCCCc1ccc(N2CCN(S(=O)(=O)C3(C(=O)NO)CCN(C(C)=O)CC3)CC2)cc1 [Example 239]	0.00054	1.05
CCCCOc1ccc(N2CCN(S(=O)(=O)C3(C(=O)NO)CCN(Cc4ccc(C)o4)CC3)CC2)cc1 [Example 246]	0.0012	5.95
COCCN1CCC(C(=O)NO)(S(=O)(=O)N2CCN(c3ccc(C(C)=O)cc3)CC2)CC1 [Example 174]	0.00213	2.91
CCCCOc1ccc(N2CCN(S(=O)(=O)C3(C(=O)NO)CC3)CC2)cc1 [Example 63]	0.00677	> 10
CCCc1ccc(N2CCN(S(=O)(=O)C3(C(=O)NO)CCN(c4ccc(C)cc4)CC3)CC2)cc1 [Example 171]	0.00682	4.11
CCCCOc1c(F)cc(N2CCN(S(=O)(=O)C3(C(=O)NO)CCN(CCOC)CC3)CC2)cc1F [Example 165]	0.00049	3.65
